Source: patent US20050054620A1, “Paricalcitol as a chemotherapeutic agent” (priority 2003, published 2005)
Entries after “also recorded” stand apart in the source; their conditions may differ.

Columns and labels:
Type in all cases: cell-based, human
[1] = test system: HL-60 cells; assay: Western blot of cell lysates; conditions: for phosphorylation of Rb / expression of Bax / expression of C/EBPβ: 3 days; for expression of Bax / expression of C/EBPβ / expression of phosphorylated-ERK: paricalcitol 0.01 μM, arsenic trioxide 0.8 μM; for expression of phosphorylated-ERK: peak after 1 day
Method: (§1) Western blot analysis was used to determine the levels of proteins involved in cell cycle and differentiation. For western blot analysis, cells were washed twice in PBS, suspended in lysis buffer [50 mM Tris (pH 8.0), 150 mM NaCl, 0.1% SDS, 0.5% sodium deoxycholate, 1% NP40, […] phenylmethylsulfonyl fluoride, […] aprotinin, […] pepstatin, and […] leupetin] and placed on ice for 30 min. After centrifugation at 15,000×g for 15 min at 4° C., the suspension was collected. Protein concentrations were quantitated using the Bio-Rad assay (Bio-Rad Labolatories, Hercules, Calif.). Whole lysates ([…]) were resolved by 4-15% SDS polyacrylamide gel, transferred to an immobilon polyvinylidene difuride membrane (Amersham Corp., Arlington Heights, Ill.), and probed sequentially with a number of antibodies (p21WAF1, p27KIP1, PTEN, and GAPDH, Santa Cruz Biotechnology Inc., Santa Cruz, Calif.). The blots were developed using the Supersignal West Pico Chemiluminescent Substrate Kit (Pierce, Rockford, Ill.).
(§2) Western blot analysis was performed as follows: cells were washed twice in PBS, suspended in lysis buffer (50 mM Tris at pH 8.0, 150 mM NaCl, 0.1% SDS, 0.5% sodium deoxycholate, 1% Nonidet P-40, phenylmethylsulfonyl fluoride at 100 μg/mL, aprotinin at 2 μg/mL, pepstatin at 1 μg/mL, and leupetin at 10 μg/mL), and placed on ice for 30 minutes. After centrifugation at 15,000×g for 15 minutes at 4° C., the suspension was collected. Protein concentrations were quantitated by using the Bio-Rad protein Assay Dye Reagent Concentrate (Bio-Rad Laboratories, Hercules, Calif.) according to the manufacture's recommendation. Whole cell lysates (40 μg) were resolved by SDS-polyacrylamide gel electrophoresis in a 4%-15% gel, transferred to a polyvinylidene difuride membrane (Immobilon, Amersham Corp., Arlington Heights, Ill.), and probed sequentially with antibodies against the following proteins: VDR, RXR, CEBPβ, Rb, Bcl-2, Bcl-XL, Bax, p-ERK, RARA, GAPDH (Santa Cruz Biotechnology Inc., Santa Cruz, CA). The blots were developed using the Supersignal West Pico Chemiluminescent Substrate Kit (Pierce, Rockford, Ill.).

[2] = test system: NB-4 cells; assay: Western blot of cell lysates
Method: as §1, §2

[3] = test system: NCI-H929 cells; assay: Cell cycle analysis by flow cytometry; conditions: for G0/G1 arrest / accumulation / sub-G1 population: 0.01 μM each, 3 days
Method: For cell cycle analysis, cells were exposed to 10^−7M 1,25(OH)2D3, 10^−7M paricalcitol or vehicle control for either 3 or 4 days. Total cells, both in suspension and adherent, were collected, washed, suspended in cold PBS. Then cells were fixed in 75% chilled methanol and stained with propidium iodine. Cell cycle status was analyzed on a Becton Dickinson Flow Cytometer.
HCI-H929 cells were cultured with either paricalcitol (10^−7M) or 1,25(OH)2D3 (10^−7M) for 72 hrs, harvested and stained with propidium iodine (PI). Control cells were treated with vehicle alone.

[4] = test system: HL-60 myeloid leukemia cells; assay: MTT assay; conditions: 4 days exposure
[5] = test system: NB-4 myeloid leukemia cells; assay: MTT assay; conditions: 4 days exposure
[6] = test system: NB-4 cells; assay: CD14 expression by flow cytometry; conditions: paricalcitol 0.1 μM, arsenic trioxide 0.6 μM, 3 days
[7] = test system: HL-60 cells; assay: NBT reduction (monocytic differentiation); conditions: paricalcitol 0.01 μM, arsenic trioxide 0.8 μM, 3 days
[8] = test system: NB-4 cells; assay: Cell cycle analysis by flow cytometry (sub-G1); conditions: paricalcitol 0.1 μM and/or arsenic trioxide 0.6 μM, 4 days, control 4%
Method: Cell cycle analysis was performed as follows: after treatment of 5×10^4 of cells with a selected compound, cells were collected, washed and suspended in cold PBS. Cells were fixed in chilled 75% methanol and stained with propidium iodine. Cell cycle status was analyzed on a Becton Dickinson Flow Cytometer used standart protocols.

[9] = test system: wild type U937 cells; assay: CD14 expression by flow cytometry; conditions: paricalcitol 0.01 μM, arsenic trioxide 0.4 μM
Description: To examine the association between the presence of the fusion protein and the effect of the combination treatment, an engineered U937 monocytic leukemia cell line (PR9) that has stable integration of the PML-RARa cDNA under the control of the Zn^2+-inducible murine metallothionein 1 promoter was used. Also used were U937 cells transfected with the MT vector (B41) as a control.

Compound | expression of VDR and RXR [1] | induction of PTEN ([1]; 10^−7M, 72 hr) [fold] | induction of p21WAF1 ([1]; 10^−7M, 72 hr) | induction of p27KIP1 ([1]; 10^−7M, 72 hr) | phosphorylation of Rb [1] | expression of Bax [1] | expression of C/EBPβ [1] | expression of phosphorylated-ERK [1] | induction of PTEN ([2]; 10^−7M, 72 hr) [fold] | G0/G1 arrest / accumulation [3] | sub-G1 population [3] | increase of accumulation in G1/G0 phase ([3]; 10^−7M, 72 hrs) [%] | increase in apoptotic sub-G1 population ([3]; 10^−7M, 72 hrs, diluant control 4% sub-G1) [%] | antiproliferative effect by MTT assay [4] | antiproliferative effect by MTT assay [5] | CD14 expression [6] | monocytic differentiation by NBT reduction [7] | cells in sub-G1 population [8] [%] | CD14 expressing cells [9] | protein level of PML-RAR ([2]; arsenic trioxide 0.6 μM, paricalcitol 0.1 μM, 3 days)
C[C@H](/C=C/[C@H](C)C(C)(C)O)[C@H]1CC[C@H]2/C(=C/C=C3C[C@@H](O)C[C@H](O)C3)CCC[C@]12C [paricalcitol, 19-nor-1,25, (OH)2D3] | not substantially changed | 7 | approximately 7 fold | about 6 fold | increased | not changed | increased | increased | 25 | induced G0/G1 arrest | increased | 7 | 21 | suppressed the cell growth in a dose-dependent manner; also recorded: sensitive | suppressed the cell growth in a dose-dependent manner; also recorded: sensitive | did not induced CD14 expression | increased | 5 | increased CD14 expressing monoicytic cells | 
arsenic trioxide | not substantially changed |  |  |  | increased | not changed | also increased its expression level | also increased |  | induced G0/G1 arrest | increased |  |  | suppressed the cell growth in a dose-dependent manner | suppressed the cell growth in a dose-dependent manner | did not induced CD14 expression | little effect on differentiation | 33 | did not induce CD14 expression | decreased the protein level of PML-RAR
